Laboratory results: US20230218663A1, “COMPOSITIONS AND METHODS FOR TREATING A SARS-COV-2 INFECTION” (priority 2020, published 2023)
Where “and” joins values, the source holds several entries; their conditions need not be identical. Equal entries are not always repeated.

Assays:
[1] = test system: SARS-CoV-2; test: Golden Syrian hamster model, oral treatment (NAC studies); assay type: in vivo; details: hamster, in vivo
[2] = test system: VeroE6 cells; test: Cell viability assay (CellTiterGlo), VeroE6; assay type: cell-based, African green monkey; details: 48 hrs incubation; concentration based on metal content; read-out: CC50 VeroE6
Protocol: The CellTiterGlo® luminescent assay (Promega Corporation, Madison, Wis., USA) was performed to detect the cytotoxicity of the selected compounds as previously described^39. Briefly, VeroE6 cells (4×10^4 cells per well) and Caco2 cells (4×10^4 cells per well) were incubated with different concentrations of the individual compound in 96-well plates for 48 hrs, followed by the addition of the substrate and measurement of luminance 10 min later. Ridaura and Au(PEt3)Cl were dissolved in DMSO, and the final percentage of DMSO was kept at 1% in culture medium.

[3] = test system: Caco-2 cell monolayer
[4] = test system: SARS-CoV-2; assay type: cell-based
[5] = test system: SARS-CoV-2; assay type: cell-based; remark: listed apart in the source
[6] = test system: SARS-CoV-2; test: Viral load reduction assay in VeroE6 cells; assay type: cell-based
Protocol: Viral load reduction assay was performed on VeroE6 and Caco2 cells, as described previously with modifications^41. Supernatant samples from the infected cells (0.1 MOI) were harvested at 48 hours post-infection (hpi) for qRT-PCR analysis of virus replication. Briefly, 100 μL of viral supernatant were lyzed with 400 μL of AVL buffer and then extracted for total RNA with the QIAamp viral RNA mini kit (Qiagen, Hilden, Germany). Real-time one-step qRT-PCR was used for quantitation of SARS-CoV-2 viral load using the QuantiNova Probe RT-PCR kit (Qiagen) with a LightCycler 480 Real-Time PCR System (Roche) as previously described^15. Each […] mixture contained 10 μL of 2×QuantiNova Probe RT-PCR Master Mix, 1.2 μL of RNase-free water, 0.2 μL of QuantiNova Probe RT-Mix, 1.6 μL each of 10 μM forward and reverse primer, 0.4 μL of 10 μM probe, and 5 μL of extracted RNA as the template. Reactions were incubated at 45° C. for 10 min for reverse transcription, 95° C. for 5 min for denaturation, followed by 45 cycles of 95° C. for 5 s and 55° C. for 30 s. Signal detection and measurement were taken in each cycle after the annealing step. The cycling profile ended with a cooling step at 40° C. for 30 s. The primers and probe sequences are against the RNA-dependent RNA polymerase/Helicase (RdRP/Hel) gene region of SARS-Cov-2 previously described^42.
Cell culture supernatants were collected at 48 hour-post-infection (hpi) for viral RNA extraction and quantitative reverse transcription-polymerase chain reaction (qRT-PCR) as previously described with modifications(13, 14). The primers and probe sequences were against the RNA-dependent RNA polymerase/Helicase (RdRP/Hel) gene region of SARS-CoV-2: forward primer: 5′-[…]-3′ (SEQ ID NO:6); reverse primer: 5′-[…]-3′(SEQ ID NO:7); specific probe: 5′-[…]-IABkFQ-3′(SEQ ID NO:8). The viral load reduction assay experiments were performed in triplicate and repeated twice for confirmation.

[7] = In vivo pharmacokinetics and biodistribution in SD rats; parameters: species or system Sprague Dawley rats
Protocol: For the measurement of detailed pharmacokinetics profiles of the optimal NAC combination with CBS identified from the above mice study, rats received a minor surgery of cannulation one day prior to experiment, with a polythene tube (i.d.0.4 mm×o.d. 0.8 mm, Harvard Apparatus, USA) in the left jugular vein, followed by an overnight recovery and fasting. Two group of rats (n=5 per group) were orally administrated with 1-mL aliquot of CBS (150 mg/kg) or CBS (150 mg/kg)+10NAC (610 mg/kg). About 200 μL of rat blood were collected via the jugular vein cannula into a heparinized centrifuge tube at 0.17, 0.33, 0.5, 1, 2, 4, 6, 8, 12, 24-hour post drug administration for respective group. Rats were allowed for free access to food 12 h after drug administrations. All the rats were sacrificed 24-hour post dosing followed by cardiac perfusion with 200-mL saline to collect major organs including spleen, liver, lung, kidney and brain for further analyses. For the digestion of tissues, a modified protocol from US EPA 3050B (USEPA, 1996) was used. Briefly, approximate 0.2˜0.3 g of the respective rat organ samples was placed in 15 ml polypropylene tubes and digested with 1 mL of 69% HNO3 at 65° C. for 16 h, while 100 μL of rat blood was digested with equal volume of 69% HNO3 at 65° C. for 16 h. After being cooled down to room temperature, the samples were diluted to 1% nitric acid to the final volume of 3 mL for further use. To eliminate matrix effect, blood and organs were also collected from untreated rats and digested under identical condition serving as blank control. Standard solutions were prepared by diluting multielement calibration standard of bismuth in the respective blank control of organ and blood, respectively. The bismuth content in each organ or blood sample was then measured by ICP-MS and calculated according to the standard curve in respective blank control. Pharmacokinetic parameters including the peak concentration (Cmax), the area under the concentration-time curve (AUC), the time reaching Cmax (Tmax) were determined through noncompartmental analysis with Phoenix WinNonlin version 6.4 (Pharsight Corporation, Mountain View, Calif., USA).

[8] = Chemical stability of bismuth drugs at different pH
[9] = cited from earlier work
[10] = oral, CBS 150 mg/kg, NAC 610 mg/kg, bismuth
[11] = oral, CBS 150 mg/kg, NAC 610 mg/kg, bismuth, listed as CBS

Colloidal Bismuth Subcitrate [De-Nol]
adverse clinical signs and symptoms [1]: mildly mitigated
pulmonary viral load compared with vehicle group [1]: No statistically significant difference
change in lung IL-6 level versus vehicle group ([1]; po): lowered but statistically non-significant change
CC50 [2]: 3.254 ± 0.021 mM
bismuth intestinal permeation within 60 min [3]: moderately elevated
effect on virus replication, drug maintained after virus entry (post-entry) [4]: functioned at post-entry stages
viral NP antigen-positive cells [5]: 37.25%
maximal viral load reduction in VeroE6 cell culture supernatant [6]: ~4 logs
maximal viral load reduction in the VeroE6 cell lysate [6]: ~2 logs
bismuth accumulation in kidney ([7]; 24 hours after oral dose): 6839.76 ng per tissue
bismuth accumulation in lung ([7]; 24 hours after oral dose): 552.15 ng per tissue
first peak value of blood bismuth level ([7]; at around 0.5 h, single oral dose CBS 150 mg/kg): 277.69 µg/L
AUC0→24 h (±SD) [7, 10]: 2324.20 (±759.76) h · μg/L
Cmax (±SD) [7, 10]: 447.06 ng/mL
AUC0→12 h (±SD) [7, 11]: 1316 h · μg/L and 1316.94 (±474.00) h · μg/L
Tmax (±SD) [7, 11]: 4 h and 2.53(±2.01) h
bismuth found in the supernatant ([8]; pH 1.2, after 1 hour, without NAC): less than 10%
bismuth remaining in the supernatant ([8]; pH 1.2, in the presence of 3 mol eq. NAC): approximately 100%
bismuth remaining in the supernatant ([8]; pH 1.2, in the presence of 10 mol eq. NAC): approximately 100%
hydrolysis at pH 9.2 in the presence of NAC ([8]; pH 9.2): prevent hydrolysis
optimum pH for precipitation ([9]; gastric juice): 3.5
solubility ([9]; water): soluble in water
